Test results reported in patent US10238667B2, “Vitamin D receptor/SMAD genomic circuit gates fibrotic response” (Salk Institute for Biological Studies, priority 2013, dated 2019).

System: primary rat HSCs
Experiment: Microarray expression profiling of TGFβ1 and TGFβ1+1,25(OH)2D3-treated HSCs
Assay type: cell-based
Details: 24 h
Description: VDR Signaling Suppresses TGFβ-induced Pro-Fibrotic Genes. […] Euclidean clustering of both rows and columns using log2 transformed microarray expression data, n=2 per treatment group. […] Data represents the mean±SEM of at least three independent experiments performed in triplicate. Asterisks denote statistically significant differences (Student's unpaired t-test, *p<0.05, **p<0.01). HSCs were isolated from 10-week old male C57BL/6J mice and Wistar rats by in situ pronase, collagenase perfusion and single-step Histogenz gradient as previously reported (Hendriks et al., 1985; Knook et al., 1982). Isolated HSCs were cultured in DMEM (Mediatech) containing 20% FBS (Hyclone) on 6-well plates for 40 hours prior to end-point assays. Total RNA from primary rat or mouse HSCs was isolated using the RNeasy mini kit (Qiagen) according to standard protocols. RNA integrity and quality was assessed using the Agilent Bioanalyzer and prepared for hybridization to Illumina rat or mouse gene expression arrays according to standard Illumina protocols. Feature extraction was performed using the Illumina GenomeStudio software. Normalization and identification of differentially expressed genes from biological duplicates was performed using […] at http://sasquatch.ucsd.edu/vampire/.

[1] = TGFβ1 1 ng/ml ± 1,25(OH)2D3 100 nM

C=C1/C(=C\C=C2/CCC[C@]3(C)C([C@H](C)CCCC(C)(C)O)CC[C@@H]23)C[C@@H](O)C[C@@H]1O (stereo partly drawn) [1,25(OH)2D3, 1α,25 dihydroxyvitamin D3]
LOC499078 VitD + TGFbeta AVG signal (TGFβ1 1 ng/ml + 1,25(OH)2D3 100 nM, Control 3963.4, TGFβ 9788.1): 2325
Glipr1_predict VitD + TGFbeta AVG signal (TGFβ1 1 ng/ml + 1,25(OH)2D3 100 nM, Control 3986, TGFβ 9174): 1894
Sh3kbp1 VitD + TGFbeta AVG signal (TGFβ1 1 ng/ml + 1,25(OH)2D3 100 nM, Control 4057.3, TGFβ 7133.8): 1618
Ms4a7_predict VitD + TGFbeta AVG signal (TGFβ1 1 ng/ml + 1,25(OH)2D3 100 nM, Control 4402.2, TGFβ 10637): 1708
LOC310190 VitD + TGFbeta AVG signal (TGFβ1 1 ng/ml + 1,25(OH)2D3 100 nM, Control 4496.5, TGFβ 12465): 2594
Itgb2 VitD + TGF β Avg Signal (TGFβ1 1 ng/ml + 1,25(OH)2D3 100 nM, Control 4506.5, TGFβ 5580.6): 4858.4
Nucb2 VitD + TGFbeta AVG signal (TGFβ1 1 ng/ml + 1,25(OH)2D3 100 nM, Control 4712.3, TGFβ 10527): 2733
RT1-Ba VitD + TGFbeta AVG signal (TGFβ1 1 ng/ml + 1,25(OH)2D3 100 nM, Control 4721.8, TGFβ 13843): 3390
LOC312102 VitD + TGFbeta AVG signal (TGFβ1 1 ng/ml + 1,25(OH)2D3 100 nM, Control 5658, TGFβ 19362): 4469
Ptpro VitD + TGFbeta AVG signal (TGFβ1 1 ng/ml + 1,25(OH)2D3 100 nM, Control 5856.6, TGFβ 12798): 2551
Dcir3 VitD + TGFbeta AVG signal (TGFβ1 1 ng/ml + 1,25(OH)2D3 100 nM, Control 6230.8, TGFβ 11228): 1354
Oplah VitD + TGFbeta AVG signal (TGFβ1 1 ng/ml + 1,25(OH)2D3 100 nM, Control 6494.5, TGFβ 16466): 1922
Itgb1 VitD + TGF β Avg Signal (TGFβ1 1 ng/ml + 1,25(OH)2D3 100 nM, Control 8050.9, TGFβ 10104.2): 7987.9
Mmp14 VitD + TGF β Avg Signal (TGFβ1 1 ng/ml + 1,25(OH)2D3 100 nM, Control 8370.4, TGFβ 15560.3): 14980.5
Timp1 VitD + TGF β Avg Signal (TGFβ1 1 ng/ml + 1,25(OH)2D3 100 nM, Control 10124.0, TGFβ 13471.4): 9101.3
Ctgf VitD + TGF β Avg Signal (TGFβ1 1 ng/ml + 1,25(OH)2D3 100 nM, Control 10532.3, TGFβ 20216.0): 9730.1
Col1a2 VitD + TGF β Avg Signal (TGFβ1 1 ng/ml + 1,25(OH)2D3 100 nM, Control 10691.1, TGFβ 24123.0): 9593.3
Ms4a6b VitD + TGFbeta AVG signal (TGFβ1 1 ng/ml + 1,25(OH)2D3 100 nM, Control 12345, TGFβ 21779): 5158
Ctsc VitD + TGFbeta AVG signal (TGFβ1 1 ng/ml + 1,25(OH)2D3 100 nM, Control 16420, TGFβ 32328): 6319
Bmp2 TGFb/TGFB + VitD3 [1]: 5.3 NM_017178.1 Rattus norvegicus bone
Cacnb3 TGFb/TGFB + VitD3 [1]: 6.0 NM_012828.1 Rattus norvegicus calcium channel
Ccl12_predicte TGFb/TGFB + VitD3 [1]: 5.5 XM_213425.2 PREDICTED: Rattus norvegicus
Ccr5 TGFb/TGFB + VitD3 [1]: 12.9 NM_053960.2 Rattus norvegicus chemokine (C-
Cdh1 TGFb/TGFB + VitD3 [1]: 4.4 NM_031334.1 Rattus norvegicus cadherin 1
Chst1_predict TGFb/TGFB + VitD3 [1]: 12.7 XM_575178.1 PREDICTED: Rattus norvegicus
Ctsc TGFb/TGFB + VitD3 [1]: 5.1 NM_017097.1 Rattus norvegicus cathepsin C
Cysltr1 TGFb/TGFB + VitD3 [1]: 4.4 NM_053641.1 Rattus norvegicus cysteinyl
Dcir2 TGFb/TGFB + VitD3 [1]: 4.6 XM_579146.1 PREDICTED: Rattus norvegicus
Dcir3 TGFb/TGFB + VitD3 [1]: 8.3 XM_579150.1 PREDICTED: Rattus norvegicus
Dsipi TGFb/TGFB + VitD3 [1]: 4.0 NM_031345.1 Rattus norvegicus delta sleep
Emr1 TGFb/TGFB + VitD3 [1]: 5.9 XM_579174.1 PREDICTED: Rattus norvegicus
Fchsd2_predic TGFb/TGFB + VitD3 [1]: 4.9 XM_218965.3 PREDICTED: Rattus norvegicus
Gas7 TGFb/TGFB + VitD3 [1]: 4.9 NM_053484.1 Rattus norvegicus growth arrest
Glipr1_predict TGFb/TGFB + VitD3 [1]: 4.8 XM_576223.1 PREDICTED: Rattus norvegicus GLI
Hod TGFb/TGFB + VitD3 [1]: 5.1 NM_133621.2 Rattus norvegicus homeobox only
LOC304349 TGFb/TGFB + VitD3 [1]: 7.1 XM_221990.3 PREDICTED: Rattus norvegicus
LOC305269 TGFb/TGFB + VitD3 [1]: 4.0 XM_223309.3 PREDICTED: Rattus norvegicus
LOC310190 TGFb/TGFB + VitD3 [1]: 4.8 XM_226886.3 PREDICTED: Rattus norvegicus
LOC312102 TGFb/TGFB + VitD3 [1]: 4.3 XM_231461.3 PREDICTED: Rattus norvegicus
LOC361699 TGFb/TGFB + VitD3 [1]: 3.8 XM_341982.2 PREDICTED: Rattus norvegicus
LOC366205 TGFb/TGFB + VitD3 [1]: 6.6 XM_345441.2 PREDICTED: Rattus norvegicus
LOC366608 TGFb/TGFB + VitD3 [1]: 4.4 XM_345665.2 PREDICTED: Rattus norvegicus
LOC497796 TGFb/TGFB + VitD3 [1]: 5.1 XM_579296.1 PREDICTED: Rattus norvegicus
LOC498741 TGFb/TGFB + VitD3 [1]: 6.1 XM_574019.1 PREDICTED: Rattus norvegicus
LOC498751 TGFb/TGFB + VitD3 [1]: 5.1 XM_574030.1 PREDICTED: Rattus norvegicus
LOC499078 TGFb/TGFB + VitD3 [1]: 4.2 XM_574362.1 PREDICTED: Rattus norvegicus
LOC499100 TGFb/TGFB + VitD3 [1]: 3.9 XM_218456.3 PREDICTED: Rattus norvegicus
LOC499272 TGFb/TGFB + VitD3 [1]: 4.4 XM_579937.1 PREDICTED: Rattus norvegicus
LOC499356 TGFb/TGFB + VitD3 [1]: 11.0 XM_574669.1 PREDICTED: Rattus norvegicus
LOC501570 TGFb/TGFB + VitD3 [1]: 4.6 XM_576974.1 PREDICTED: Rattus norvegicus
LOC502904 TGFb/TGFB + VitD3 [1]: 6.7 XM_578406.1 PREDICTED: Rattus norvegicus
LOC502907 TGFb/TGFB + VitD3 [1]: 9.6 XM_578409.1 PREDICTED: Rattus norvegicus
Ly49si1 TGFb/TGFB + VitD3 [1]: 4.6 XM_579297.1 PREDICTED: Rattus norvegicus
Ly49si2 TGFb/TGFB + VitD3 [1]: 4.6 XM_579298.1 PREDICTED: Rattus norvegicus
Ms4a4a_predi TGFb/TGFB + VitD3 [1]: 17.7 XM_342027.1 PREDICTED: Rattus norvegicus
Ms4a6a_predi TGFb/TGFB + VitD3 [1]: 4.5 XM_215145.3 PREDICTED: Rattus norvegicus
Ms4a6b TGFb/TGFB + VitD3 [1]: 4.2 NM_00100697 Rattus norvegicus membrane-
Ms4a7_predict TGFb/TGFB + VitD3 [1]: 6.2 XM_215200.2 PREDICTED: Rattus norvegicus
Nucb2 TGFb/TGFB + VitD3 [1]: 3.9 NM_021663.2 Rattus norvegicus nucleobindin 2
Oplah TGFb/TGFB + VitD3 [1]: 8.6 NM_053904.1 Rattus norvegicus 5-oxoprolinase
Pcsk1 TGFb/TGFB + VitD3 [1]: 7.4 NM_017091.1 Rattus norvegicus proprotein
Pirb TGFb/TGFB + VitD3 [1]: 5.3 NM_031713.1 Rattus norvegicus paired-Ig-like
Ptprc TGFb/TGFB + VitD3 [1]: 4.2 NM_138507.1 Rattus norvegicus protein tyrosine
Ptpro TGFb/TGFB + VitD3 [1]: 5.0 NM_017336.1 Rattus norvegicus protein tyrosine
RT1-Ba TGFb/TGFB + VitD3 [1]: 4.1 XM_579226.1 PREDICTED: Rattus norvegicus
Sh3kbp1 TGFb/TGFB + VitD3 [1]: 4.4 NM_053360.2 Rattus norvegicus SH3-domain
Slamf9_predic TGFb/TGFB + VitD3 [1]: 4.2 XM_213932.2 PREDICTED: Rattus norvegicus
Stab1_predict TGFb/TGFB + VitD3 [1]: 5.6 XM_214279.3 PREDICTED: Rattus norvegicus
Tmem26_pred TGFb/TGFB + VitD3 [1]: 3.8 XM_228108.3 PREDICTED: Rattus norvegicus
